Measured values taken from patent US4547357A, “N-Hydroxyethylated 2,4,6-triiodoaminoisophthalic acid bistrihydroxybutylamides, their preparation and x-ray contrast media containing them” (priority 1981, dated 1985).
Like-named read-outs stand apart in the source and are kept apart here.

Tests used:
Mouse = experiment: General compatibility, mouse LD50; format: in vivo; conditions: for Mouse LD50: General compatibility
Excerpt: (§1) In Table I, the following compounds are compared with respect to neural and general compatibility: […]

Rat [1] = experiment: Neural compatibility, rat, pericerebral ED50; format: in vivo
Excerpt: as §1

Solubility in water = format: physicochemical; conditions: in 100 ml of water; read-out: Solubility (100 ml of water dissolves)
[2] = Viscosity at 37° C., 300 mg I/ml; format: physicochemical
[3] = clinical experience; cited from earlier work
[4] = Number of hydroxy groups per molecule; format: physicochemical
Iodine content = format: physicochemical
Rat [5] = experiment: Neural compatibility, rat, intracisternal ED50; format: in vivo
Excerpt: as §1

Rat [6] = experiment: Neural compatibility, comparison in words; format: in vivo; conditions: data of Table I
Excerpt: as §1

solubility (Solubility in water) [mg/mL]	SMILES	side effects (in words) [3]	Mouse LD50 (Mouse) [g I/kg]	Rat, pericerebral ED50 (Rat [1]) [mg I/kg]	Number of hydroxy groups/molecule [4]	Iodine content (Iodine content) [%]	Rat, intracisternal ED50 (Rat [5]) [mg I/kg]	Viscosity [2] [mPa · s]	other results
	C[C@H](O)C(=O)Nc1c(I)c(C(=O)NC(CO)CO)c(I)c(C(=O)NC(CO)CO)c1I [C, Iopamidol]	still are not devoid of side effects	15	154	5	49	116	4.5	
> 700	CC(=O)N(CCO)c1c(I)c(C(=O)NC(CO)(CO)CO)c(I)c(C(=O)NC(CO)(CO)CO)c1I [Example 3, 5-[N-(2-Hydroxyethyl)acetylamino]-2,4,6-triiodo-isophthalic Acid Bis(1,1,1-trishydroxymethylmethyl)diamide]								
	CC(=O)Nc1c(I)c(C(=O)N[C@H]2C(O)O[C@H](CO)[C@@H](O)[C@@H]2O)c(I)c(N(C)C(C)=O)c1I (some centres unmarked) [B, Metrizamide]	still are not devoid of side effects	14	62	4	48	48	6.2	
	CC(=O)N(CC(O)CO)c1c(I)c(C(=O)NCC(O)CO)c(I)c(C(=O)NCC(O)CO)c1I (centres unmarked) [D, Iohexol]	still are not devoid of side effects	15	83	6	46	67	5.5	
> 700	CC(=O)N(CCO)c1c(I)c(C(=O)NCC(O)C(O)CO)c(I)c(C(=O)NCC(O)C(O)CO)c1I (centres unmarked) [Example 4, 5-[N-(2-Hydroxyethyl)acetylamino]-2,4,6-triiodo-isophthalic Acid Bis(2,3,4-trihydroxybut-1-yl)-diamide]								
	CC(=O)N(CCO)c1c(I)c(C(=O)NC(CO)C(O)CO)c(I)c(C(=O)NC(CO)C(O)CO)c1I (stereo not drawn) [Example 1, 5-[N-(2-Hydroxyethyl)acetylamino]-2,4,6-triiodoisophthalic acid bis(threo-1,3,4-trihydroxybut-2-yl)diamide]				7	45	130		Mouse LD50 (Mouse; listed as A1): 17 g I/kg; general compatibility (in words) (Mouse; data of Table I): superior to the comparison compounds; Rat, pericerebral ED50 (Rat [1]; listed as A1): 171 mg I/kg; neural compatibility (in words) (Rat [6]): superior to the comparison compounds; Viscosity ([2]; listed as A1): 5.8 mPa · s

SMILES	solubility (Solubility in water) [mg/mL]	side effects (in words) [3]	Mouse LD50 (Mouse) [g I/kg]	Rat, pericerebral ED50 (Rat [1]) [mg I/kg]	Number of hydroxy groups/molecule [4]	Iodine content (Iodine content) [%]	Rat, intracisternal ED50 (Rat [5]) [mg I/kg]	Viscosity [2] [mPa · s]	other results
CC(=O)N(CCO)c1c(I)c(C(=O)NC(CO)C(O)CO)c(I)c(C(=O)NC(CO)C(O)CO)c1I (stereo not drawn) [Example 2, 5-[N-(2-Hydroxyethyl)acetylamino]-2,4,6-triiodoisophthalic acid bis(erythro-1,3,4-trihydroxybut-2-yl)diamide]	> 700								Mouse LD50 (Mouse; listed as A2): 22 g I/kg; Rat, pericerebral ED50 (Rat [1]; listed as A2): 188 mg I/kg; Viscosity ([2]; listed as A2): 6.2 mPa · s
